Source: PubChem BioAssay AID2061108 (Research group of Professor Matthew Todd, School of …, 2025)
Active and inactive are the calls of the source. No rule for the calls is given here.

What was measured:
Test in all cases: antibacterial and antifungal growth inhibition panel, profiling panel, Idler compounds, first plate, PMBN-permeabilized strains (AID 2061108)
Parameters in all cases: haemolysis: dose or concentration left out as unconfirmed
[1] = system: E. coli NCTC 12923 + PMBN growth inhibition, 100 uM; settings: S. aureus ATCC 9144 growth inhibition; measured here: E. coli plus PMBN; at 100 µM; stronger effect = higher value
[2] = system: M. avium growth inhibition, 10 uM; settings: M. avium growth inhibition, 10 µM
[3] = system: E. coli NCTC 12923 growth inhibition, 100 uM; settings: E. coli NCTC 12923 growth inhibition, 100 µM; stronger effect = higher value
[4] = system: red blood cell haemolysis; settings: stronger effect = higher value; dose or concentration not given here
[5] = system: A. baumannii ATCC 17978 + PMBN growth inhibition, 100 uM; settings: A. baumannii plus PMBN growth inhibition, 100 µM; stronger effect = higher value
[6] = system: S. aureus ATCC 9144 growth inhibition, 100 uM; settings: S. aureus ATCC 9144 growth inhibition; at 100 µM; stronger effect = higher value
[7] = system: C. albicans NCPF 3281 growth inhibition, 100 uM; settings: S. aureus ATCC 9144 growth inhibition; measured here: C. albicans NCPF 3281; at 100 µM; stronger effect = higher value
[8] = system: A. baumannii ATCC 17978 growth inhibition, 100 uM; settings: S. aureus ATCC 9144 growth inhibition; measured here: A. baumannii ATCC 17978; at 100 µM; stronger effect = higher value
[9] = system: M. abscessus growth inhibition, 10 uM; settings: S. aureus ATCC 9144 growth inhibition; measured here: M. abscessus; at 10 µM

Compound	inhibition [1] [%]	inhibition [2] [%]	inhibition [3] [%]	haemolysis [4] [%]	inhibition [5] [%]	inhibition [6]	inhibition [7] [%]	inhibition [8] [%]	inhibition [9] [%]
O=S(=O)(F)c1cccc(NCc2ccc(F)cc2)n1	0.494	1.19	-1.49	-0.396	16.7	13% (inactive)	-98.2	-3.33	-1.1
N#Cc1c(NC[C@H]2CCCN2)nc2ccccc2c1C(F)(F)F	17.7	-0.31	12.8	0.41	53.6	99.7%	-78.9	9.76	-1.13
FC(F)Oc1ccc(-c2nnc3cncc(OCCCC(F)(F)F)n23)cc1	-9.02	-0.289	-7.16	0.0506	4.86	-9.47% (inactive)	-49.2	-14.8	-0.237
COc1cc2nc(NCCCN(C)C)nc(N3CC(N(C)C)C3)c2cc1OC	2.07	5.58	11.5	0.15	29.9	37.5% (inactive)	-118	17.3	1.59
COc1cccc(C(=O)Nc2nc3cc(Cl)c(OC)cc3s2)c1	-13.2	0.396	-30.8	4.42	19.1	2.28% (inactive)	-74.4	-4.34	-0.266
CC1(C)C2CCC1(C)C(OCC(O)CNC1CCCCC1)C2 (configuration not stated)	100	-0.797	19.9	0.00104	79.1	17%	100	29.4	-1.25
O=C(N/N=C/c1ccncc1O)c1ccncc1	1.36	-1.89	18.6	-0.102	22.8	22% (inactive)	79.2	12.6	-0.377
O=C(NCCn1ccc2ccccc21)Nc1c[nH]c2ccccc12	8.41	1.09	-5.81	0.223	55	1.75% (inactive)	-13.8	1.2	0.723
Cn1nc(C(C)(C)C)cc1NC(=O)Nc1ccc(Cl)cc1	99.4	0.442	12.6	0.904	83	-18.4%	-75.2	-12	-0.347
Cc1ccn2c(=O)nc(SCC(=O)OCc3ccccc3)nc2c1	-29.4	-0.191	-34.5	-0.0134	5.22	7% (inactive)	-102	0.238	-0.803
Cn1c(=O)oc2cc(S(=O)(=O)NC3CC4CCC3C4)ccc21 (configuration not stated)	-2.35	-0.637	-0.946	-0.134	25.8	17.3% (inactive)	-18.8	-1.79	-0.526
O=c1[nH]c(=O)c2cc(S(=O)(=O)Nc3cc(F)c(NCCN4CCOCC4)c(F)c3)ccc2[nH]1	0.988	-0.106	-4.32	-0.0292	12	17.7% (inactive)	-21.1	-1.9	-0.977
N#Cc1c(N2Cc3cccc(O)c3C2)nc2ccccc2c1C(F)(F)F	35.4	0.654	2.16	-0.139	33.9	97%	3.66	23.8	-1.26
